Source: patent publication US8952024B2, “Herbicidal pyrimidone derivatives” (E I du Pont de Nemours and Company, priority 2009, dated 2015)

Columns and labels:
Experiment in all cases: Test D pre-/postemergence plant response
Type in all cases: in vivo
[1] = system: barnyardgrass (Echinochloa crus-galli)
Procedure, shortened: (§1)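 Greenhouse assay: sown seeds in loam/sand received preemergence spray; simultaneously, emerged seedlings (1- to 4-leaf, 2–18 cm) got postemergence spray of the same surfactant-containing formulation. Rating at 14–21 days by visual comparison with controls, 0 = no effect to 100 = complete control.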

[2] = system: spanishneedles (Bidens bipinnata)
Procedure, shortened: as §1

[3] = system: Russian thistle (Salsola kali)
Procedure, shortened: as §1

[4] = system: mallow (common mallow, Malva sylvestris)
Procedure, shortened: as §1

[5] = system: kochia (Kochia scoparia)
Procedure, shortened: as §1

[6] = system: Surinam grass (Brachiaria decumbens)
Procedure, shortened: as §1

[7] = system: johnsongrass (Sorghum halepense)
Procedure, shortened: as §1

[8] = system: itchgrass (Rottboellia cochinchinensis)
Procedure, shortened: as §1

[9] = system: dayflower (Virginia (VA) dayflower, Commelina virginica)
Procedure, shortened: as §1

[10] = system: green foxtail (Setaria viridis)
Procedure, shortened: as §1

[11] = system: groundsel (common groundsel, Senecio vulgaris); conditions: Postemergence
Procedure, shortened: as §1

[12] = system: ragweed (common ragweed, Ambrosia elatior)
Procedure, shortened: as §1

[13] = system: bluegrass (annual bluegrass, Poa annua)
Procedure, shortened: as §1

[14] = system: guineagrass (Panicum maximum)
Procedure, shortened: as §1

[15] = system: morningglory (pitted morningglory, Ipomoea lacunosa)
Procedure, shortened: as §1

[16] = system: purslane (common purslane, Portulaca oleracea)
Procedure, shortened: as §1

[17] = system: signalgrass (broadleaf signalgrass, Brachiaria platyphylla)
Procedure, shortened: as §1

[18] = system: large crabgrass (Digitaria sanguinalis)
Procedure, shortened: as §1

[19] = Postemergence, 31 g ai/ha, scale 0 to 100 (0 no effect, 100 complete control)
[20] = Postemergence, 62 g ai/ha, scale 0 to 100 (0 no effect, 100 complete control)
[21] = Postemergence, 125 g ai/ha, scale 0 to 100 (0 no effect, 100 complete control)
[22] = Postemergence, 16 g ai/ha, scale 0 to 100
[23] = Preemergence, 16 g ai/ha, scale 0 to 100, 0 no effect, 100 complete control
[24] = Preemergence, 31 g ai/ha, scale 0 to 100 (0 no effect, 100 complete control)
[25] = Preemergence, 62 g ai/ha, scale 0 to 100
[26] = Preemergence, 125 g ai/ha, scale 0 to 100
[27] = Postemergence, 31 g ai/ha, scale 0 to 100
[28] = Preemergence, rate not given, scale 0 to 100, 0 no effect, 100 complete control
[29] = 62 g ai/ha, scale 0 to 100 (0 no effect, 100 complete control)
[30] = 125 g ai/ha, scale 0 to 100 (0 no effect, 100 complete control)
[31] = Postemergence, 250 g ai/ha, scale 0 to 100 (0 no effect, 100 complete control)

COCCn1c(-c2cccc(C)c2)ncc(C(=O)C2=C(O)C3CCC(C3)C2=O)c1=O (stereo not drawn) [Compound 233]
Plant response rating, Barnyardgrass [1, 19]: 75 | Plant response rating, Barnyardgrass [1, 20]: 85 | Plant response rating, Barnyardgrass [1, 21]: 85 | Plant response rating, Barnyardgrass [1, 22]: 65 | Plant response rating, Barnyardgrass [1, 23]: 0 | Plant response rating, Barnyardgrass [1, 24]: 0 | Plant response rating, Barnyardgrass [1, 25]: 5 | Plant response rating, Barnyardgrass [1, 26]: 40 | Plant response rating, Spanishneedles [2, 27]: 35 | Plant response rating, Spanishneedles [2, 20]: 50 | Plant response rating, Spanishneedles [2, 21]: 60 | Plant response rating, Spanishneedles [2, 22]: 35 | Plant response rating, Spanishneedles [2, 23]: 0 | Plant response rating, Spanishneedles [2, 24]: 50 | Plant response rating, Spanishneedles [2, 26]: 95 | Plant response rating, Spanishneedles [2, 28]: 85 | Plant response rating, Russian Thistle [3, 21]: 10 | Plant response rating, Russian Thistle [3, 22]: 0 | Plant response rating, Russian Thistle [3, 23]: 50 | Plant response rating, Russian Thistle [3, 24]: 65 | Plant response rating, Russian Thistle [3, 26]: 100 | Plant response rating, Russian Thistle [3, 28]: 75 | Plant response rating, Mallow [4, 27]: 0 | Plant response rating, Mallow [4, 20]: 0 | Plant response rating, Mallow [4, 21]: 0 | Plant response rating, Mallow [4, 22]: 0 | Plant response rating, Mallow [4, 23]: 0 | Plant response rating, Mallow [4, 24]: 0 | Plant response rating, Mallow [4, 25]: 0 | Plant response rating, Mallow [4, 26]: 60 | Plant response rating, Kochia [5, 27]: 20 | Plant response rating, Kochia [5, 20]: 30 | Plant response rating, Kochia [5, 21]: 35 | Plant response rating, Kochia [5, 22]: 10 | Plant response rating, Kochia [5, 23]: 0 | Plant response rating, Kochia [5, 24]: 0 | Plant response rating, Kochia [5, 25]: 20 | Plant response rating, Kochia [5, 26]: 80 | Plant response rating, Surinam Grass [6, 20]: 50 | Plant response rating, Surinam Grass [6, 21]: 60 | Plant response rating, Surinam Grass [6, 22]: 30 | Plant response rating, Surinam Grass [6, 23]: 0 | Plant response rating, Surinam Grass [6, 24]: 5 | Plant response rating, Surinam Grass [6, 26]: 100 | Plant response rating, Johnsongrass [7, 27]: 35 | Plant response rating, Johnsongrass [7, 20]: 50 | Plant response rating, Johnsongrass [7, 21]: 50 | Plant response rating, Johnsongrass [7, 22]: 20 | Plant response rating, Johnsongrass [7, 23]: 0 | Plant response rating, Johnsongrass [7, 24]: 0 | Plant response rating, Johnsongrass [7, 25]: 20 | Plant response rating, Johnsongrass [7, 26]: 65 | Plant response rating, Itchgrass [8, 27]: 65 | Plant response rating, Itchgrass [8, 20]: 70 | Plant response rating, Itchgrass [8, 21]: 80 | Plant response rating, Itchgrass [8, 22]: 50 | Plant response rating, Itchgrass [8, 23]: 0 | Plant response rating, Itchgrass [8, 24]: 0 | Plant response rating, Itchgrass [8, 25]: 0 | Plant response rating, Itchgrass [8, 26]: 20 | Plant response rating, Dayflower, VA [9, 27]: 35 | Plant response rating, Dayflower, VA [9, 20]: 35 | Plant response rating, Dayflower, VA [9, 21]: 60 | Plant response rating, Dayflower, VA [9, 22]: 15 | Plant response rating, Dayflower, VA [9, 23]: 0 | Plant response rating, Dayflower, VA [9, 24]: 80 | Plant response rating, Dayflower, VA [9, 25]: 100 | Plant response rating, Dayflower, VA [9, 26]: 100 | Plant response rating, Foxtail, Green [10, 27]: 10 | Plant response rating, Foxtail, Green [10, 20]: 30 | Plant response rating, Foxtail, Green [10, 21]: 35 | Plant response rating, Foxtail, Green [10, 22]: 5 | Plant response rating, Foxtail, Green [10, 23]: 0 | Plant response rating, Foxtail, Green [10, 24]: 0 | Plant response rating, Foxtail, Green [10, 25]: 0 | Plant response rating, Foxtail, Green [10, 26]: 0 | Plant response rating, Groundsel ([11]; 31 g ai/ha, scale 0 to 100): 50 | Plant response rating, Groundsel [11, 29]: 90 | Plant response rating, Groundsel [11, 30]: 100 | Plant response rating, Groundsel ([11]; 16 g ai/ha, scale 0 to 100): 30 | Plant response rating, Ragweed [12, 27]: 75 | Plant response rating, Ragweed [12, 20]: 75 | Plant response rating, Ragweed [12, 21]: 98 | Plant response rating, Ragweed [12, 22]: 65 | Plant response rating, Ragweed [12, 23]: 50 | Plant response rating, Ragweed [12, 24]: 70 | Plant response rating, Ragweed [12, 26]: 98 | Plant response rating, Ragweed [12, 28]: 95 | Plant response rating, Bluegrass [13, 19]: 0 | Plant response rating, Bluegrass [13, 20]: 0 | Plant response rating, Bluegrass [13, 21]: 0 | Plant response rating, Bluegrass [13, 22]: 0 | Plant response rating, Bluegrass [13, 23]: 0 | Plant response rating, Bluegrass [13, 24]: 0 | Plant response rating, Bluegrass [13, 25]: 25 | Plant response rating, Bluegrass [13, 26]: 40 | Plant response rating, Guineagrass [14, 27]: 30 | Plant response rating, Guineagrass [14, 20]: 40 | Plant response rating, Guineagrass [14, 21]: 50 | Plant response rating, Guineagrass [14, 22]: 20 | Plant response rating, Guineagrass [14, 23]: 0 | Plant response rating, Guineagrass [14, 24]: 0 | Plant response rating, Guineagrass [14, 25]: 0 | Plant response rating, Guineagrass [14, 26]: 0 | Plant response rating, Morningglory [15, 27]: 60 | Plant response rating, Morningglory [15, 20]: 70 | Plant response rating, Morningglory [15, 21]: 70 | Plant response rating, Morningglory [15, 22]: 50 | Plant response rating, Morningglory [15, 23]: 0 | Plant response rating, Morningglory [15, 24]: 80 | Plant response rating, Morningglory [15, 25]: 95 | Plant response rating, Morningglory [15, 26]: 95 | Plant response rating, Purslane [16, 27]: 30 | Plant response rating, Purslane [16, 20]: 30 | Plant response rating, Purslane [16, 21]: 40 | Plant response rating, Purslane [16, 22]: 30 | Plant response rating, Purslane [16, 23]: 0 | Plant response rating, Purslane [16, 24]: 0 | Plant response rating, Purslane [16, 25]: 100 | Plant response rating, Purslane [16, 26]: 100 | Plant response rating, Signalgrass [17, 27]: 5 | Plant response rating, Signalgrass [17, 20]: 25 | Plant response rating, Signalgrass [17, 21]: 35 | Plant response rating, Signalgrass [17, 22]: 0 | Plant response rating, Signalgrass [17, 23]: 0 | Plant response rating, Signalgrass [17, 24]: 0 | Plant response rating, Signalgrass [17, 26]: 35 | Plant response rating, Crabgrass, Large [18, 27]: 40 | Plant response rating, Crabgrass, Large [18, 20]: 50 | Plant response rating, Crabgrass, Large [18, 21]: 60 | Plant response rating, Crabgrass, Large [18, 22]: 20 | Plant response rating, Crabgrass, Large [18, 23]: 0 | Plant response rating, Crabgrass, Large [18, 24]: 5 | Plant response rating, Crabgrass, Large [18, 25]: 25 | Plant response rating, Crabgrass, Large [18, 26]: 90

COCCn1c(-c2cccc(F)c2)ncc(C(=O)C2=C(O)C3CCC(C3)C2=O)c1=O (stereo not drawn) [Compound 235]
Plant response rating, Barnyardgrass [1, 19]: 80 | Plant response rating, Barnyardgrass [1, 20]: 80 | Plant response rating, Barnyardgrass [1, 21]: 95 | Plant response rating, Barnyardgrass [1, 31]: 95 | Plant response rating, Spanishneedles [2, 27]: 65 | Plant response rating, Spanishneedles [2, 20]: 70 | Plant response rating, Spanishneedles [2, 21]: 80 | Plant response rating, Spanishneedles [2, 31]: 85 | Plant response rating, Russian Thistle [3, 27]: 30 | Plant response rating, Russian Thistle [3, 20]: 30 | Plant response rating, Russian Thistle [3, 21]: 50 | Plant response rating, Russian Thistle [3, 31]: 60 | Plant response rating, Mallow [4, 27]: 10 | Plant response rating, Mallow [4, 20]: 50 | Plant response rating, Mallow [4, 21]: 70 | Plant response rating, Mallow [4, 31]: 70 | Plant response rating, Kochia [5, 27]: 20 | Plant response rating, Kochia [5, 20]: 60 | Plant response rating, Kochia [5, 21]: 70 | Plant response rating, Kochia [5, 31]: 85 | Plant response rating, Surinam Grass [6, 27]: 75 | Plant response rating, Surinam Grass [6, 20]: 75 | Plant response rating, Surinam Grass [6, 21]: 75 | Plant response rating, Surinam Grass [6, 31]: 85 | Plant response rating, Johnsongrass [7, 27]: 70 | Plant response rating, Johnsongrass [7, 20]: 70 | Plant response rating, Johnsongrass [7, 21]: 85 | Plant response rating, Johnsongrass [7, 31]: 85 | Plant response rating, Itchgrass [8, 27]: 70 | Plant response rating, Itchgrass [8, 20]: 75 | Plant response rating, Itchgrass [8, 21]: 80 | Plant response rating, Itchgrass [8, 31]: 90 | Plant response rating, Dayflower, VA [9, 27]: 60 | Plant response rating, Dayflower, VA [9, 20]: 70 | Plant response rating, Dayflower, VA [9, 21]: 75 | Plant response rating, Dayflower, VA [9, 31]: 75 | Plant response rating, Foxtail, Green [10, 27]: 70 | Plant response rating, Foxtail, Green [10, 20]: 95 | Plant response rating, Foxtail, Green [10, 21]: 98 | Plant response rating, Foxtail, Green [10, 31]: 98 | Plant response rating, Groundsel ([11]; 31 g ai/ha, scale 0 to 100): 100 | Plant response rating, Groundsel [11, 29]: 100 | Plant response rating, Groundsel [11, 30]: 100 | Plant response rating, Groundsel ([11]; 250 g ai/ha, scale 0 to 100 (0 no effect, 100 complete control)): 100 | Plant response rating, Ragweed [12, 27]: 70 | Plant response rating, Ragweed [12, 20]: 70 | Plant response rating, Ragweed [12, 21]: 80 | Plant response rating, Ragweed [12, 31]: 80 | Plant response rating, Bluegrass [13, 19]: 5 | Plant response rating, Bluegrass [13, 20]: 20 | Plant response rating, Bluegrass [13, 21]: 35 | Plant response rating, Bluegrass [13, 31]: 50 | Plant response rating, Guineagrass [14, 27]: 75 | Plant response rating, Guineagrass [14, 20]: 75 | Plant response rating, Guineagrass [14, 21]: 75 | Plant response rating, Guineagrass [14, 31]: 75 | Plant response rating, Morningglory [15, 27]: 75 | Plant response rating, Morningglory [15, 20]: 75 | Plant response rating, Morningglory [15, 21]: 95 | Plant response rating, Morningglory [15, 31]: 95 | Plant response rating, Purslane [16, 27]: 60 | Plant response rating, Purslane [16, 20]: 60 | Plant response rating, Purslane [16, 21]: 60 | Plant response rating, Purslane [16, 31]: 70 | Plant response rating, Signalgrass [17, 27]: 65 | Plant response rating, Signalgrass [17, 20]: 90 | Plant response rating, Signalgrass [17, 21]: 90 | Plant response rating, Signalgrass [17, 31]: 95 | Plant response rating, Crabgrass, Large [18, 27]: 70 | Plant response rating, Crabgrass, Large [18, 20]: 75 | Plant response rating, Crabgrass, Large [18, 21]: 75 | Plant response rating, Crabgrass, Large [18, 31]: 80
